{"source": "paper PMC2974656", "about": "“Selective killing of human immunodeficiency virus infected cells by non-nucleoside reverse transcriptase inhibitor-induced activation of HIV protease” (Retrovirology, 2010)", "key": {"[1]": {"target": "T1, RT heterodimer (p66/p51) (Human immunodeficiency virus type 1 group M subtype B, UniProt P04585)", "T1 construct": "the bait protein (p66) was fused to the C-terminus of a chimeric receptor; expressed in transfected cells; host or cells: mammalian cells", "assay": "cell-based", "assay_type": "cell-based, HIV-1", "from_the_text": "RT heterodimer formation was monitored using a mammalian two hybrid system described previously. In brief, the bait protein (p66) was fused to the C-terminus of a chimeric receptor consisting of the extracellular part of the erythropoietin receptor and the intracellular part of the leptin receptor incapable of STAT activation. The prey protein (p51) was coupled to a part of the cytoplasmic tail of the gp130 chain carrying several STAT3 recruitment domains. Interaction of bait and prey protein leads to functional complementation of STAT3 activity, which results in Epo dependent induction of a STAT3-responsive luciferase reporter gene. Enhancement of this interaction by the addition of compounds can thus be measured by an increase of luciferase expression."}, "[2]": {"test_system": "MT4-LTR-EGFP-IIIB HIV-1 producing cells", "assay": "in vitro", "assay_type": "cell-based", "protocol": "(§1) The cytotoxicity of inhibitors was determined in parallel on MT4-CMV-EGFP control cells and on MT4-LTR-EGFP-IIIB virus producing cells, respectively."}, "[3]": {"test_system": "HIV-1IIIB", "assay": "Direct antiviral activity: MT4-LTR-EGFP cells infected with HIV-1IIIB, EGFP fluorescence", "assay_type": "cell-based", "conditions": "MT4-LTR-EGFP cells, HIV-1IIIB MOI 0.01, 3 days; mean ± SD of three or more measurements; read-out: Inhibition of HIV replication in vitro EC50", "protocol": "After 3 days of incubation, infected cells were quantified by determination of total EGFP fluorescence per well based on microscopy and subsequent image analysis. Threshold values were determined from the average pixel value plus 6 standard deviations from the uninfected control wells, and the median threshold from all control wells on a plate was defined as baseline GFP expression. Intensity values for the sample wells were then determined by subtracting the background threshold from each pixel value obtained from the image of the respective well and calculating the sum of net pixel intensities. Percent inhibition was calculated as 100 * (1 - (Sample - CC)/(VC - CC))."}, "[4]": {"test_system": "MT4-LTR-EGFP-IIIB cells", "assay_type": "cell-based", "conditions": "1 μM, 6 days, trypan blue", "from_the_text": "(§2) In MT4-LTR-EGFP-IIIB cells, HIV expression could additionally be detected through long terminal repeat (LTR) driven expression of the gfp marker gene. As a control we used uninfected MT-4 cells or MT4-CMV-EGFP cells, constitutively expressing EGFP from a CMV promoter, respectively.\n(§3) Cell lysates were harvested and analyzed by immunoblot using antiserum raised against HIV-1 CA. Positions of Gag and Gag-Pol processing products are marked at the right, molecular mass standards are indicated to the left (in kDa). […] Live cells were counted after trypan blue staining. Data represent mean values and standard deviations from three parallel cultures."}, "[5]": {"test_system": "Gag processing in MT-4-IIIB cells", "assay": "Immunoblot of Gag processing in chronically infected MT-4 cells", "assay_type": "cell-based, HIV-1", "conditions": "1 μM, day 2 post addition"}, "[6]": {"test_system": "293T cells", "assay": "Microscopically detectable impairment of cell growth of transfected 293T cells", "assay_type": "cell-based", "conditions": "high NNRTI concentrations (5 μM and above)", "protocol": "At 44 h post transfection, cell lysates were analyzed for β-Gal activity."}, "[7]": {"test_system": "MT4-CMV-EGFP control cells", "assay": "Cytotoxicity on uninfected control cells, EGFP fluorescence per well", "assay_type": "cell-based", "protocol": "as §1"}, "[8]": {"test_system": "MT4-LTR-EGFP parental cells", "conditions": "1 μM, 6 days, trypan blue", "from_the_text": "as §2, §3"}, "[9]": {"test_system": "intracellular Gag processing by HIV PR", "assay_type": "cell-based, HIV-1", "conditions": "293T cells, 44 h post transfection", "protocol": "In previous studies, high concentrations of NNRTI (5 μM) were required to observe NNRTI mediated activation of intracellular HIV PR activity. […]. Towards this end, we developed a biochemical assay for gel independent quantitation of intracellular Gag processing by HIV PR in the context of a virus producing cell. We had previously shown that additional protein domains, consisting of small epitope tags or even the 27 kDa green fluorescent protein (EGFP), can be inserted between the MA and CA domains of the Gag and Gag-Pol polyproteins without affecting polyprotein production or processing by HIV PR [36]. Based on this, we designed a HIV reporter construct which contained a small N-terminal fragment ('alpha peptide') of Escherichia coli beta-galactosidase (β-Gal), flanked by two HIV PR recognition sites, between the MA and CA coding sequences of Gag (Figure 1A). […] This so called alpha complementation principle can be exploited for use in mammalian cells and has been employed for the establishment of various cell based biochemical assay systems. We reasoned that embedding of the small alpha peptide within the multi-domain polyproteins Gag or Gag-Pol, respectively, should impair its productive association with the omega subunit, while proteolytic release of the alpha peptide from the polyprotein by PR would allow the formation of enzymatically active β-Gal. This should allow us to monitor intracellular Gag and Gag-Pol processing through increased β-Gal activity.\nReconstituted β-Gal activity in cell lysates was measured by cleavage of the chromogenic substrate CPRG [42] as described in Methods.\nThe activity of β-Gal in cell lysates from transfected 293T cells was measured by enzymatic cleavage of the chromogenic β-Gal substrate chlorphenolred-β-D-galactopyranoside (CPRG, Roche; [42]). At 44 h post transfection, cells were briefly rinsed with PBS and suspended in reporter gene assay lysis buffer (Roche, 600 μl per 6-well dish) supplemented with a protease inhibitor mix (Roche). Cell suspensions were incubated for 10 min at room temperature and cell debris was subsequently removed by brief centrifugation. Five μl of supernatant were diluted in 96-well plates with 95 μl CPRG reaction buffer (50 mM potassium phosphate, pH 7.5, 1 mM MgCl2) and pre-warmed for 5 min to 37°C. 100 μl of pre-warmed reaction mix (100 μM CPRG in CPRG reaction buffer supplemented with protease inhibitor cocktail and 40 μM β-mercaptoethanol) were added and β-Gal mediated cleavage of CPRG was monitored by recording absorption at 592 nm every 2 min for 20 min at 37°C using a TECAN Safire multi-well reader. OD592 values were plotted over time and relative reaction rates (OD592/min) were determined from the initial linear velocities."}}, "data": [{"smiles": "NS(=O)(=O)c1ccc(NC(=O)CSc2nnc(Br)n2-c2ccc(C3CC3)c3ccccc23)c(Cl)c1", "note": "[VRX-480773]", "values": [{"measurement": "EC50", "setting": "[1]; concentration enhancing luciferase signal by 50% over control, read-out: Enhancement of RT-Dimerization EC50", "result": 4, "unit": "nM"}, {"measurement": "Promotion of RT dimerization, in words", "setting": "[1]; summary of Table 1", "result": "low nM range"}, {"measurement": "CC50", "setting": "[2]; 4 days, no DRV, mean ± SD, tested up to 10 μM, read-out: Cytotoxicity on MT4-LTR-EGFP-IIIB HIV-1 producing cells CC50", "result": "680 ± 340", "unit": "nM"}, {"measurement": "Cytotoxicity on MT4-LTR-EGFP-IIIB cells, in words", "setting": "[2]; summary of Table 1", "result": "submicromolar range"}, {"measurement": "EC50", "setting": "[3]", "result": "1.6 ± 0.81", "unit": "nM"}, {"measurement": "Live cell numbers, HIV infected MT4-LTR-EGFP-IIIB cells", "setting": "[4]", "result": "significant decrease"}, {"measurement": "NNRTI mediated enhancement of Gag processing in virus producing cells", "setting": "[5]", "result": "decreased ratio of Gag to intermediate and fully mature processing products"}, {"measurement": "Impairment of cell growth with decrease in β-Gal activity indicative of cytotoxic effects", "setting": "[6]", "result": "most pronounced"}, {"measurement": "CC50", "setting": "[7]", "result": "5820 ± 1440", "unit": "nM"}, {"measurement": "CC50 on uninfected control cells relative to virus producing cells", "setting": "[7]", "result": "~ 10 fold"}, {"measurement": "Number of uninfected control cells", "setting": "[8]", "result": "remained constant"}, {"measurement": "Concentration showing strong β-Gal activity enhancement", "setting": "[9]", "result": "~ 250 nM"}]}]}
